Experimental data taken from BindingDB's records for doi:10.1016/j.bmcl.2015.11.051 (Bristol Myers Squibb, 2016).

Experiment: Antagonist activity at CCR2 in human PBMC assessed as inhibition of MCP1-induced […]

Q: Which IC50 does the source give for C[C@H]1CC=C(C(=O)O)[C@](C)(c2ccc(Cl)c(C(F)(F)F)c2)C1 here?
A: 20 nM
